In PMC2610419 (Chemical biology & drug design, 2006):
Numbering of substitutions follows the chain as printed. “Also recorded” adds a separate entry of the source. Square brackets hold non-standard residues; d marks the D form. Ends that are not written are not given here. pS = N[C@@H](COP(=O)(O)O)C(=O)O

Assays:
Parameters in all cases: species or system murine
Abl SH2 domain Arg45Gln = molecular target: T1, Abl SH2 domain Arg45Gln (Mus musculus, UniProt P00520, R161Q); assay: HSQC NMR titration ligand-binding assay, Arg45Gln mutant; settings: read-out: Affinity in high salt, 135 mM KCl
T1 sequence (P00520 120-220 R161Q): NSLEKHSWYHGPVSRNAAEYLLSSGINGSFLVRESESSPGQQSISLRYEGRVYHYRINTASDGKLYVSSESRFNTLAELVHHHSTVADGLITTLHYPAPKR

Abl SH2 domain Arg59Gln = molecular target: T2, Abl SH2 domain Arg59Gln (Mus musculus, UniProt P00520, R175Q); assay: HSQC NMR titration ligand-binding assay, Arg59Gln mutant; settings: for Affinity in high salt: 135 mM KCl; for Kd: read-out: Affinity in high salt, 135 mM KCl
T2 sequence (P00520 120-220 R175Q): T1 sequence (P00520 120-220 R161Q) with Q42R, R56Q

Abl SH2 domain Arg36Lys = molecular target: T3, Abl SH2 domain Arg36Lys (Mus musculus, UniProt P00520, R152K); assay: HSQC NMR titration ligand-binding assay, Arg36Lys mutant; settings: 135 mM KCl
T3 sequence (P00520 120-220 R152K): T1 sequence (P00520 120-220 R161Q) with R33K, Q42R

[1] = molecular target: T4, Abl SH2 domain (wild type) (Mus musculus, UniProt P00520); assay: HSQC NMR titration ligand-binding assay, wild type Abl SH2 domain; settings: for Affinity in high salt: 135 mM KCl, HSQC titration, ± standard error
T4 sequence (P00520 120-220): T1 sequence (P00520 120-220 R161Q) with Q42R

Row | Compound | Kd (Abl SH2 domain Arg45Gln) | Affinity in high salt (Abl SH2 domain Arg59Gln) | Kd (Abl SH2 domain Arg59Gln) | Affinity in high salt (Abl SH2 domain Arg36Lys) | Affinity in high salt [1] | other results
1 | CCCC(=O)OC[C@H](COP(=O)(O)O[C@@H]1[C@H](O)[C@H](O)[C@@H](OP(=O)(O)O)[C@H](OP(=O)(O)O)[C@H]1O)OC(=O)CCC [diC4-PtdIns(4,5)P2, dibutanoyl (C4) PtdIns(4,5)P2] | 900 ± 60 µM | almost completely disrupted | > 10000 µM | Not detectable | – | Affinity in high salt (Abl SH2 domain Arg36Lys; listed as PtdIns(4,5)P2): abolished
2 | CCCCCCCC(=O)OC[C@H](COP(=O)(O)O[C@@H]1[C@H](O)[C@H](O)[C@@H](OP(=O)(O)O)[C@H](OP(=O)(O)O)[C@H]1O)OC(=O)CCCCCCC [diC8-PtdIns(4,5)P2, dioctanoyl (C8) PtdIns(4,5)P2] | – | – | – | – | – | stronger affinity of the C8 over C4 form of PtdIns(4,5)P2 ([1]; ratio of affinities): 1.6 fold
3 | N[C@@H](Cc1ccc(OP(=O)(O)O)cc1)C(=O)O [pTyr, phosphotyrosine] | 390 ± 13 µM | reduced to millimolar levels | 2500 ± 200 µM | abolished; also recorded: Not detectable | – | –
4 | GQSSRV[pS]PSPTTY [BCR pSer354 peptide] | – | – | – | – | Not detectable | –
5 | phosphatidic acid [Phosphatidicacid] | – | – | – | – | very weak | –
6 | phosphatidylserine | – | – | – | – | Not detectable | Affinity in high salt ([1]; listed as PtdSer): very weak
